In patent publication US20110250254A1, “ANTIMICROBIAL COMPOSITIONS AND USES” (priority 2008, published 2011):
Like-named read-outs stand apart in the source and are kept apart here.

Legend:
Format in all cases: cell-based
S. epidermidis [1] = assay: Shaking biofilm model (200 rpm), safranine staining; conditions: Staphylococcus epidermidis, read-out: Shaking biofilm model % Remaining
Method: (§1) According to the static biofilm model, a given thiophenone 200 μmol/L was dissolved in 500 μl absolute ethanol and applied to wells of a standard 24 well microtiter plate. The ethanol was evaporated from the wells in a laminar air sterile work bench at room temperature so as to leave a coating of the thiophenone in the well. A sample of bacteria was then added to the well and incubated for a given period of time. After incubation, the percentage of bacteria remaining was assessed by safranine staining of the biofilm. Bound safranine was released by acetic acid and optical density was measured in Synergy HT Multi-Detection Microplate Reader and compared to a control.
According to the shaking biofilm model, the microtiter plates were shaken (200 rpm) in a Minitron Incubator Shaker during biofilm formation.

V. harveyi [2] = assay: Biofilm formation on peggs, Calgary method; conditions: for Effect on V. harveyi biofilm: in words
Method: (§2) Biofilm formation was measured in static cultures in wells of microtiter plates for S. epidermidis, or on “peggs” according to the Calgary method (The Calgary biofilm devices: New technology for rapid determination of antibiotic susceptibilities of bacterial biofilms. Ceri et al. J Clin Microbiol 1999:37:1771-1776) for V. harveyi. In both cases the safranin staining method was applied and optical density was measured at 530 nm for quantification of biofilm mass.

V. harveyi [3] = assay: Planktonic growth in Low Binding Plates, OD 600 nm; conditions: for Effect on V. harveyi planktonic growth: in words; for V. harveyi planktonic bacteria reduction: 100 μM
Method: (§3) Planktonic growth was determined in “Low Binding Plates” in which the bacteria form minimal amounts of biofilm The quantity is determined by optical density measurements at 600 nm.

S. epidermidis [4] = assay: Static biofilm model on coated glass vials; conditions: incubation time 5 h, coating on glass vial
Method: The materials of Example 3 were tested in a static biofilm model as follows.
Triplicate samples of a coating composition were applied to a glass vial in accordance with Table 2 set out below where each vial is given a number. Vials 1 to 12 are each loaded with 13 mg of the indicated material, followed by the addition of 1.0 mL dichloromethane. The dichloromethane was slowly evaporated under atmospheric pressure to leave a coating on the internal walls of the receptacles. Vials 13 to 18 were each loaded by adding 10 mg of the indicated material pre-dissolved in 10 mL dichloromethane. These vials were heated in an oven at 125° C. for 24 hours. To remove any residues of the dichloromethane solvent, all vials were dried at high vacuum (0.5 mmHg) for 2 hours at room temperature.
The biofilm was assessed as described in Example 2.
It is possible in the example of the copolymer of C and D that bacteria are killed in addition to the inhibition of biofilm formation. Similar results were obtained in a static biofilm model where S. epidermis bacteria were incubated over a time period of 5 hours.

marine bacteria [5] = assay: Coated stainless steel, MPN viable counts of desorbed bacteria; conditions: 14 days at 20° C., median values vs no coating
Method: (§4) Biological testing of coated stainless steel substrates were performed in a static cultures of marine bacteria. The biofilm prevention efficiencies of the coatings were recorded as a) total enumeration of bacteria attached on the steel surfaces and b) most-probable number (MPN) viability testing of attached bacteria. The nature of the thiophenes (expecting to inhibit biofilm generation without being toxic to the bacteria) should account for inhibition of both total counts and viability counts when thiophene-coated surfaces were compared to non-treated controls.
(§5) Three samples of stainless steel substrates were prepared as described above, each of these in triplicate. […]
(§6) At the end of the experimental period (14 days) the steel surfaces were removed from the media and carefully washed in sterile and particle-free (filtered through […] sterile filters) seawater. […] Desorbed concentrations of bacteria were recorded by epifluorescence microscopy and by MPN-counts in MB medium.
(§7) For epifluorescence microscopy 10 ml desorbed samples were stained with 2 μg 3′5-diamino phenylindol (DAPI) and incubated for 5-10 minutes. The stained samples were filtered through 0.2 μm black polycarbonate filters and analysed in a fluorescence microscope at 1250× magnification. […] The plates were incubated at 20° C. for 5 days and positive growth recorded as turbidity in the wells. […]

marine bacteria [6] = assay: Coated stainless steel, total counts of desorbed bacteria by epifluorescence microscopy; conditions: 14 days at 20° C., median values vs no coating
Method: as §4, §5, §6, §7

S. epidermidis [7] = assay: Static biofilm model, safranine staining; conditions: 6 h incubation, thiophenone 200 μmol/L coating
Method: as §1

S. epidermidis [8] = assay: Planktonic growth in Low Binding Plates, OD 600 nm
Method: as §3

S. epidermidis [9] = assay: Biofilm formation in static cultures in wells of microtiter plates
Method: as §2

[10] = S. epidermidis, 20 h incubation

## O=C1C=C/C(=C(/Br)c2ccccc2)S1 [Thio112, (Z)-5-(bromo(phenyl)methylene) thiophen-2(5H)-one]
S. epidermidis [1]; S. epidermidis, 6 h incubation
  activity at 200 µM: 63%
S. epidermidis [1]; [10]
  activity at 200 µM: 59%

## CCN(/C=C1/C=CC(=O)S1)CC
V. harveyi [2]
  Effect on V. harveyi biofilm: No effect
V. harveyi [3]
  Effect on V. harveyi planktonic growth: No effect

## CCO[Si](CCCNC(=O)OCC1=C/C(=C/Br)SC1=O)(OCC)OCC [Compound F, (Z)-(5-bromomethylene-2-oxo-2,5-dihydrothiopen-3-yl)methyl 3-(triethoxysilyl)propylcarbamate]
S. epidermidis [4]
  Static biofilm model % Remaining: 45%
Marine bacteria [5]
  Inhibition of viable attached bacteria: > 99%
Marine bacteria [6]
  Inhibition of biofilm attachment (total counts): ~80%

## COc1ccc(CC2(CO)C=CC(=O)S2)s1 (stereo not drawn) [Thi401, 5-(hydroxymethyl)-5-((5-methoxythiophen-2-yl)methyl)thiophen-2(5H)-one]
S. epidermidis [1]; S. epidermidis, 6 h incubation
  activity at 200 µM: 80%
S. epidermidis [1]; [10]
  activity at 200 µM: 94%
S. epidermidis [7]
  Static biofilm model % Remaining: 51%

## O=C1C=C/C(=C/Cl)S1 [Thio103, (Z)-5-(chloromethylene) thiophen-2(5H)-one]
S. epidermidis [1]; 6 h
  activity at 200 µM: 92%
S. epidermidis [1]; 20 h
  activity at 200 µM: 96%
S. epidermidis [7]
  Static biofilm model % Remaining: 32%

## O=C1C=C/C(=C/C(Br)Br)S1 [Thio107, (Z)-5-(2,2-dibromoethylidene) thiophen-2(5H)-one]
S. epidermidis [1]; S. epidermidis, 6 h incubation
  activity at 200 µM: 77%
S. epidermidis [1]; [10]
  activity at 200 µM: 93%

## O=C1C=C/C(=C/c2cccs2)S1 [Thio301, (Z)-5-(thiophen-2-ylmethylene) thiophen-2(5H)-one]
S. epidermidis [1]; S. epidermidis, 6 h incubation
  activity at 200 µM: 80%
S. epidermidis [1]; [10]
  activity at 200 µM: 98%

## O=C1S/C(=C\Br)C=C1c1cccs1 [(Z)-5-(bromomethylene)-3-(thiophen-2-yl)thiophen-2(5H)-one]
V. harveyi [3]
  V. harveyi planktonic bacteria reduction: 30%

## O=C1S/C(=C\c2ccccc2)C=C1Br [Thio110, (Z)-5-benzylidene-3-bromothiophen-2(5H)-one]
S. epidermidis [1]; S. epidermidis, 6 h incubation
  activity at 200 µM: 30%
S. epidermidis [1]; [10]
  activity at 200 µM: 27%

## O=C1C=C/C(=C/c2ccccc2)S1 [Thio109, (Z)-5-benzylidenethiophen-2(5H)-one]
S. epidermidis [1]; S. epidermidis, 6 h incubation
  activity at 200 µM: 98%
S. epidermidis [1]; [10]
  activity at 200 µM: 107%

## O=C1C=C/C(=C/I)S1
V. harveyi [2]; 5 μM
  V. harveyi biofilm reduction: 46%
V. harveyi [2]; 10 μM
  V. harveyi biofilm reduction: 80%
V. harveyi [2]; 15 μM
  V. harveyi biofilm reduction: 95%
S. epidermidis [8]; 50 μM
  S. epidermis planktonic bacterial growth reduction: 50%
S. epidermidis [8]; 100 μM
  S. epidermis planktonic bacterial growth reduction: 63%
S. epidermidis [9]; 50 μM
  S. epidermis biofilm reduction: 50%
S. epidermidis [9]; 100 μM
  S. epidermis biofilm reduction: 64%

## CC(=O)O/C=C1/C=CC(=O)S1 [Thio104, (Z)-(5-oxothiophen-2(5H)-ylidene)methyl acetate]
S. epidermidis [1]; 6 h
  activity at 200 µM: 106%
S. epidermidis [1]; 20 h
  activity at 200 µM: 103%
S. epidermidis [7]
  Static biofilm model % Remaining: 34%

## O=C1S/C(=C\Br)C=C1Br [Thio105, (Z)-3-bromo-5-(bromomethylene)thiophen-2(5H)-one]
S. epidermidis [1]; S. epidermidis, 6 h incubation
  activity at 200 µM: 20%
S. epidermidis [1]; [10]
  activity at 200 µM: 18%

## O=C1SC(=C(Br)Br)C=C1Br [Thio108, 3-bromo-5-(dibromomethylene)thiophen-2(5H)-one]
S. epidermidis [1]; S. epidermidis, 6 h incubation
  activity at 200 µM: 1%
S. epidermidis [1]; [10]
  activity at 200 µM: 9%

## CCO[Si](CCCNC(=O)OCc1ccccc1)(OCC)OCC [Benzyl 3-(triethoxysilyl)propylcarbamate, reference compound]
S. epidermidis [4]
  Static biofilm model % Remaining: 100%

## COc1ccc(C2CSC(=O)C2)s1 (stereo not drawn)
V. harveyi [2]
  Effect on V. harveyi biofilm: No effect
V. harveyi [3]
  Effect on V. harveyi planktonic growth: No effect

## N#CS/C=C1/C=CC(=O)S1
V. harveyi [2]; 25 μM
  V. harveyi biofilm reduction: 90%
V. harveyi [3]; 25 μM
  V. harveyi planktonic reduction: 50%
S. epidermidis [8]; concentrations from 25 μM
  S. epidermis planktonic growth reduction: 70%

## O=Cc1ccc(/C=C2/C=CC(=O)S2)s1 [Thio303, (Z)-5-((5-oxothiophen-2(5H)-ylidene)methyl)thiophene-2-carbaldehyde]
S. epidermidis [1]; S. epidermidis, 6 h incubation
  activity at 200 µM: 95%
S. epidermidis [1]; [10]
  activity at 200 µM: 91%

## O=C(O)CCC(=O)OCC1=C/C(=C/Br)SC1=O
V. harveyi [2]; 5 μM
  V. harveyi biofilm reduction: 17%
V. harveyi [2]; 50 μM
  V. harveyi biofilm reduction: 70%
V. harveyi [2]; 100 μM
  V. harveyi biofilm reduction: 85%
V. harveyi [3]
  V. harveyi planktonic bacteria reduction: 18%

## COc1ccc(C=O)s1 [Thio201, 5-methoxythiophene-2-carbaldehyde]
S. epidermidis [1]; S. epidermidis, 6 h incubation
  activity at 200 µM: 81%
S. epidermidis [1]; [10]
  activity at 200 µM: 101%
S. epidermidis [7]
  Static biofilm model % Remaining: 56%

## COc1ccc(/C=C2/C=CC(=O)S2)s1 [Thio304, (Z)-5-((5-methoxythiophen-2-yl)methylene)thiophen-2(5H)-one]
S. epidermidis [1]; S. epidermidis, 6 h incubation
  activity at 200 µM: 72%
S. epidermidis [1]; [10]
  activity at 200 µM: 94%

## O=C1C=C/C(=C/c2ccc(Br)s2)S1 [Thio302, (Z)-5-((5-bromothiophen-2-yl)methylene)thiophen-2(5H)-one]
S. epidermidis [1]; S. epidermidis, 6 h incubation
  activity at 200 µM: 98%
S. epidermidis [1]; [10]
  activity at 200 µM: 101%

## O=C1C=C/C(=C(\Br)c2ccccc2)S1 [Thio111, (E)-5-(bromo(phenyl)methylene) thiophen-2-(5H)-one]
S. epidermidis [1]; S. epidermidis, 6 h incubation
  activity at 200 µM: 63%
S. epidermidis [1]; [10]
  activity at 200 µM: 50%

## COc1ccc(C=C(Br)Br)s1 [Thio202, 2-(2,2-dibromovinyl)-5-methoxythiophene]
S. epidermidis [1]; S. epidermidis, 6 h incubation
  activity at 200 µM: 94%
S. epidermidis [1]; [10]
  activity at 200 µM: 103%

## COc1sc(/C=C2/C=CC(=O)S2)c(Br)c1Br [Thio305, (Z)-5-((3,4-dibromo-5-methoxythiophen-2-yl)methylene)thiophen-2(5H)-one]
S. epidermidis [1]; S. epidermidis, 6 h incubation
  activity at 200 µM: 66%
S. epidermidis [1]; [10]
  activity at 200 µM: 101%

## O=C1C=C/C(=C/c2ccc(-c3cccs3)s2)S1 [Thio306, (Z)-5-(2,2′-bithiophen-5-ylmethylene) thiophen-2(5H)-one]
S. epidermidis [7]
  Static biofilm model % Remaining: 67%

## O=C1C=C/C(=C/Oc2ccc([N+](=O)[O-])cc2)S1
S. epidermidis [8]; in words
  Effect on S. epidermis planktonic growth: No effect
S. epidermidis [9]; in words
  Effect on S. epidermis biofilm: No effect

## O=C1C=CC(=C(Br)Br)S1 [Thio106, 5-(dibromomethylene)thiophen-2(5H)-one]
S. epidermidis [1]; S. epidermidis, 6 h incubation
  activity at 200 µM: 11%
S. epidermidis [1]; [10]
  activity at 200 µM: 27%

## O=C1C=C/C(=C\Br)S1 [Thio102, (E)-5-(bromomethylene) thiophen-2(5H)-one]
S. epidermidis [1]; S. epidermidis, 6 h incubation
  activity at 200 µM: 91%
S. epidermidis [1]; [10]
  activity at 200 µM: 103%
S. epidermidis [7]
  Static biofilm model % Remaining: 95%
